According to patent US6407114B1, “Pyrazolopyrimidinone CGMP PDE5 inhibitors for the treatment of sexual dysfunction” (Pfizer Inc., priority 1998, dated 2002):

Biological target: cGMP PDE5 (UniProt O76074)
Experiment: In vitro PDE inhibitory activity against cGMP PDE5
Type: biochemical
Conditions: in vitro inhibition of cGMP PDE5
Method: In vitro PDE inhibitory activities against cyclic guanosine 3′,5′-monophosphate (cGMP) and cyclic adenosine 3′,5′-monophosphate (cAMP) phosphodiesterases were determined by measurement of their IC50 values (the concentration of compound required for 50% inhibition of enzyme activity).
The required PDE enzymes were isolated from a variety of sources, including human corpus cavernosum, human and rabbit platelets, human cardiac ventricle, human skeletal muscle and bovine retina, essentially by the method of W. J. Thompson and M. M. Appleman (Biochem., 1971, 10, 311). In particular, the cGMP-specific PDE (PDE5) and the cGMP-inhibited cAMP PDE (PDE3) were obtained from human corpus cavernosum tissue, human platelets or rabbit platelets; the cGMP-stimulated PDE (PDE2) was obtained from human corpus cavernosum; the calcium/calmodulin (Ca/CAM)-dependent PDE (PDE1) from human cardiac ventricle; the cAMP-specific PDE (PDE4) from human skeletal muscle; and the photoreceptor PDE (PDE6) from bovine retina.
Assays were performed using a modification of the “batch” method of W. J. Thompson et al. (Biochem., 1979, 18, 5228).

Compound | IC50
CCCOc1ccc(S(=O)(=O)N2CCN(CC)CC2)cc1-c1nc2c(c(Cc3ccccn3)nn2CCC)c(=O)[nH]1 [Example 1, 6-[5-(4-Ethylpiperazin-1-ylsulphonyl)-2-n-propoxyphenyl]-1-n-propyl-3-(pyridin-2-yl)methyl-1,5-dihydro-4H-pyrazolo[3,4-d]pyrimidin-4-one] | 9.3 nM
CCCn1nc(Cc2ccccc2)c2c(=O)[nH]c(-c3cc(S(=O)(=O)N4CCN(C)CC4)ccc3OCC)nc21 [Example 4, 3-Benzyl-6-[2-ethoxy-5-(4-methylpiperazin-1-ylsulphonyl)phenyl]-1-n-propyl-1,5-dihydro-4H-pyrazolo[3,4-d]pyrimidin-4-one] | 5.61 nM
CCCOc1ccc(S(=O)(=O)N2CCN(C)CC2)cc1-c1nc2c(c(C)nn2Cc2ccccn2)c(=O)[nH]1 [Example 14, 3-Methyl-6-[5-(4-methylpiperazin-1-ylsulphonyl)-2-n-propoxyphenyl]-1-(pyridin-2-yl)methyl-1,5-dihydro-4H-pyrazolo[3,4-d]pyrimidin-4-one] | 4.4 nM
CCOc1ncc(S(=O)(=O)N2CCN(CC)CC2)cc1-c1nc2c(c(-c3cnccn3)nn2CC)c(=O)[nH]1 [Example 18, 6-[2-Ethoxy-5-(4-ethylpiperazin-1-ylsulphonyl)pyridin-3-yl]-1-ethyl-3-(pyrazin-2-yl)-1,5-dihydro-4H-pyrazolo[3,4-d]pyrimidin-4-one] | 8.1 nM
CCCn1nc(-c2cnccn2)c2c(=O)[nH]c(-c3cc(S(=O)(=O)N4CCN(CC)CC4)cnc3OCC)nc21 [Example 19, 6-[2-Ethoxy-5-(4-ethylpiperazin-1-ylsulphonyl)pyridin-3-yl]-1-n-propyl-3-(pyrazin-2-yl)-1,5-dihydro-4H-pyrazolo[3,4-d]pyrimidin-4-one] | 7.67 nM
CCOc1ncc(S(=O)(=O)N2CCN(CC)CC2)cc1-c1nc2c(c(-c3ccccc3)nn2CC)c(=O)[nH]1 [Example 21, 6-[2-Ethoxy-5-(4-ethylpiperazin-1-ylsulphonyl)pyridin-3-yl]-1-ethyl-3-phenyl-1,5-dihydro-4H-pyrazolo[3,4-d]pyrimidin-4-one] | 4.6 nM
